Experimental data: US6509035B1, “Oral preparation of coenzyme a useful for lowering blood lipid and a method producing for same” (Shanghai Materia Medica Bioengineering Institute, priority 1999, dated 2003)

Tests used:
[1] = test system: serum triglyceride; assay: Effect of CoA on serum triglyceride in patients with hyperlipemia; assay type: in vivo, human; conditions: oral 35 units three times daily
Experimental: (§1) Object: Individuals with plasma lipid more than 90% of upper limit of normal person were chosen, i.e. serum cholesterol >230 mg %, or triglyceride >160 mg %, 39 patients in total, 14 male, aged from 28-65; 25 female, aged from 32 to 70.
(§2) Oral dosage of CoA: one tablet per time, 35 units per tablet, administered on empty stomach three times daily. Three months was used as a course of treatment. During the course of the administration, the patients had diet same as the normal and stopped the administration of any other lipid-lowering medicament.
(§3) Measurement of plasma lipid: venous blood samples were taked from 12-14 hrs-fasting patients before administration and one month and 3 months after administration. Concentration of serum cholesterol and triglyceride were measured after isolation of serum. In the meantime, each patients' medical history was inquired, blood pressure was measured and liver function was determined.
(1) Effect on triglyceride: Statistical analysis were carried out on the difference of the concentration of serum triglyceride of hyperlipemia patients between before and after the administration of CoA by individual comparison test.

[2] = test system: peripheral platelet; assay: Effect of CoA on peripheral platelet of experimental dogs; assay type: in vivo, dog
Experimental: Object: 10 experimental dogs were used and devided into 2 groups of 5 to which oral or injection preparations of CoA was adminisered, respectively. Their peripheral platelet samples were taken and tested at intervals to observe the differences between before and after administration.
Dosage of CoA: Oral administration group, 100 units per time, twice per day. Injection administration group, 35 units per time, twice per day.
Result: Statistical analysis were carried out on the changes of the number of platelets before and after the administration of CoA to dogs by individual comparison test. It is noted that exogenous CoA can improve the level of platelet in experimental dogs in a short time either administered by oral or injection route.

[3] = test system: serum cholesterol; assay: Effect of CoA on serum cholesterol in patients with hyperlipemia; assay type: in vivo, human; conditions: oral 35 units three times daily
Experimental: as §1, §2, §3
(2) Effect on cholesterol: Statistical analysis was carried out on the difference of the concentration of serum cholesterol of patients with hyperlipemia between before and after the administration of CoA by individual comparison test.

## CC(C)(COP(=O)(O)OP(=O)(O)OC[C@H]1O[C@@H](n2cnc3c(N)ncnc32)[C@H](O)[C@@H]1OP(=O)(O)O)[C@@H](O)C(=O)NCCC(=O)NCCS [CoA, coenzyme A]
[1]; one month
  Average difference of triglyceride concentration between before and after administration (decrement): 64.2 mg %
[1]; three months
  Average difference of triglyceride concentration between before and after administration (decrement): 75.5 mg %
[2]; injection administration group, day 8 (P<0.01)
  Average increment of platelets: 170,800 /mm^3
[2]; injection administration, 35 units twice per day, sampling time 1
  Average increment of platelet: 0.28 10,000/mm^3
[2]; injection administration, 35 units twice per day, sampling time 3
  Average increment of platelet: 7.44 10,000/mm^3
[2]; injection administration, 35 units twice per day, sampling time 6
  Average increment of platelet: 5.48 10,000/mm^3
[2]; injection administration, 35 units twice per day, sampling time 8
  Average increment of platelet: 17.08 10,000/mm^3
[2]; injection administration, 35 units twice per day, sampling time 10
  Average increment of platelet: 11.36 10,000/mm^3
[2]; injection administration, 35 units twice per day, sampling time 13
  Average increment of platelet: 3.68 10,000/mm^3
[2]; oral administration group, day 6 (P<0.05)
  Average increment of platelets: 133,000 /mm^3
[2]; oral administration, 100 units twice per day, sampling time 1
  Average increment of platelet: 8.64 10,000/mm^3
[2]; oral administration, 100 units twice per day, sampling time 3
  Average increment of platelet: 8.06 10,000/mm^3
[2]; oral administration, 100 units twice per day, sampling time 6
  Average increment of platelet: 13.3 10,000/mm^3
[2]; oral administration, 100 units twice per day, sampling time 8
  Average increment of platelet: 4.25 10,000/mm^3
[2]; oral administration, 100 units twice per day, sampling time 10
  Average increment of platelet: 1.96 10,000/mm^3
[2]; oral administration, 100 units twice per day, sampling time 13
  Average increment of platelet: −2.52 10,000/mm^3
[3]; one month
  Average difference of serum cholesterol concentration between before and after administration (decrement): 25.7 mg %
[3]; three months
  Average difference of serum cholesterol concentration between before and after administration (decrement): 22.1 mg %
